Measurements reported in PubChem BioAssay (NCI).
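Grown in 96-well plates, cells were treated for 48 hours with each compound at five concentrations. Insufficient inhibition: endpoint recorded as highest concentration tested. At the GI50, growth is halved. TGI: total growth inhibition.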

Columns and labels:
Test in all cases: growth of human tumour cells (NCI), 48 h
786-0 renal = test system: 786-0 renal
A498 renal = test system: A498 renal
A549 NSCLC = test system: A549 NSCLC
ACHN renal = test system: ACHN renal
BT-549 breast = test system: BT-549 breast
CAKI-1 renal = test system: CAKI-1 renal
CCRF-CEM leukemia = test system: CCRF-CEM leukemia
COLO 205 colon = test system: COLO 205 colon
DU-145 prostate = test system: DU-145 prostate
EKVX NSCLC = test system: EKVX NSCLC
HCC-2998 colon = test system: HCC-2998 colon
HCT-116 colon = test system: HCT-116 colon
HCT-15 colon = test system: HCT-15 colon
HL-60(TB) leukemia = test system: HL-60(TB) leukemia
HOP-62 NSCLC = test system: HOP-62 NSCLC
HOP-92 NSCLC = test system: HOP-92 NSCLC
HS 578T breast = test system: HS 578T breast
HT29 colon = test system: HT29 colon
IGROV1 ovarian = test system: IGROV1 ovarian
K-562 leukemia = test system: K-562 leukemia
KM12 colon = test system: KM12 colon
LOX IMVI melanoma = test system: LOX IMVI melanoma
M14 melanoma = test system: M14 melanoma
MALME-3M melanoma = test system: MALME-3M melanoma
MCF7 breast = test system: MCF7 breast
MDA-MB-231 breast = test system: MDA-MB-231 breast
MDA-MB-435 = test system: MDA-MB-435
MOLT-4 leukemia = test system: MOLT-4 leukemia
NCI-H226 lung = test system: NCI-H226 lung

Q: How did the GI50 (786-0 renal) turn out when `COc1cc(F)c(F)c(Nc2ccc(I)cc2F)c1NS(=O)(=O)C1(CC(O)CO)CC1` (stereo not drawn) was run?
A: 16.8 µM

Q: What about the TGI (786-0 renal) of the same compound?
A: 38.7 µM

Q: What about the GI50 (A498 renal) of the same compound?
A: 10.1 µM

Q: And the TGI (A498 renal)?
A: 28.1 µM

Q: And the GI50 (A549 NSCLC)?
A: 15.4 µM

Q: What about the TGI (A549 NSCLC) of the same compound?
A: > 64.9 µM

Q: What about the GI50 (ACHN renal) of the same compound?
A: 17 µM

Q: What about the TGI (ACHN renal) of the same compound?
A: > 73.9 µM

Q: What about the GI50 (BT-549 breast) of the same compound?
A: 14.6 µM

Q: What about the TGI (BT-549 breast) of the same compound?
A: 35.2 µM

Q: What about the GI50 (CAKI-1 renal) of the same compound?
A: 10.2 µM

Q: What about the TGI (CAKI-1 renal) of the same compound?
A: 54.4 µM

Q: What about the GI50 (CCRF-CEM leukemia) of the same compound?
A: 19.8 µM

Q: What about the TGI (CCRF-CEM leukemia) of the same compound?
A: > 72.3 µM

Q: What about the GI50 (COLO 205 colon) of the same compound?
A: 3.43 µM

Q: What about the TGI (COLO 205 colon) of the same compound?
A: 16.1 µM

Q: And the GI50 (DU-145 prostate)?
A: 19.4 µM

Q: What about the TGI (DU-145 prostate) of the same compound?
A: 54 µM

Q: And the GI50 (EKVX NSCLC)?
A: 13.4 µM

Q: And the TGI (EKVX NSCLC)?
A: 57.2 µM

Q: What about the GI50 (HCC-2998 colon) of the same compound?
A: 10.8 µM

Q: And the TGI (HCC-2998 colon)?
A: 25.5 µM

Q: And the GI50 (HCT-116 colon)?
A: 13.5 µM

Q: And the TGI (HCT-116 colon)?
A: 31.6 µM

Q: What about the GI50 (HCT-15 colon) of the same compound?
A: 14.6 µM

Q: And the TGI (HCT-15 colon)?
A: 47.4 µM

Q: And the GI50 (HL-60(TB) leukemia)?
A: 7.19 µM

Q: What about the TGI (HL-60(TB) leukemia) of the same compound?
A: 57.7 µM

Q: And the GI50 (HOP-62 NSCLC)?
A: 14 µM

Q: And the TGI (HOP-62 NSCLC)?
A: 32.4 µM

Q: What about the GI50 (HOP-92 NSCLC) of the same compound?
A: 1.13 µM

Q: And the TGI (HOP-92 NSCLC)?
A: 19.6 µM

Q: What about the GI50 (HS 578T breast) of the same compound?
A: 10.8 µM

Q: What about the TGI (HS 578T breast) of the same compound?
A: 55.4 µM

Q: What about the GI50 (HT29 colon) of the same compound?
A: 4.5 µM

Q: And the TGI (HT29 colon)?
A: 22.5 µM

Q: What about the GI50 (IGROV1 ovarian) of the same compound?
A: 10.4 µM

Q: And the TGI (IGROV1 ovarian)?
A: 34.4 µM

Q: What about the GI50 (K-562 leukemia) of the same compound?
A: 15.7 µM

Q: And the TGI (K-562 leukemia)?
A: > 81.7 µM

Q: And the GI50 (KM12 colon)?
A: 13.3 µM

Q: What about the TGI (KM12 colon) of the same compound?
A: 30.9 µM

Q: And the GI50 (LOX IMVI melanoma)?
A: 4.92 µM

Q: What about the TGI (LOX IMVI melanoma) of the same compound?
A: 17.6 µM

Q: What about the GI50 (M14 melanoma) of the same compound?
A: 3.04 µM

Q: And the TGI (M14 melanoma)?
A: 15.5 µM

Q: What about the GI50 (MALME-3M melanoma) of the same compound?
A: 1.02 µM

Q: And the TGI (MALME-3M melanoma)?
A: 8.02 µM

Q: And the GI50 (MCF7 breast)?
A: 16.6 µM

Q: What about the TGI (MCF7 breast) of the same compound?
A: 43.7 µM

Q: What about the GI50 (MDA-MB-231 breast) of the same compound?
A: 11 µM

Q: What about the TGI (MDA-MB-231 breast) of the same compound?
A: 27.3 µM

Q: And the GI50 (MDA-MB-435)?
A: 4.63 µM

Q: And the TGI (MDA-MB-435)?
A: 22.3 µM

Q: What about the GI50 (MOLT-4 leukemia) of the same compound?
A: 15.2 µM

Q: What about the TGI (MOLT-4 leukemia) of the same compound?
A: 52.3 µM

Q: What about the GI50 (NCI-H226 lung) of the same compound?
A: 15.2 µM

Q: What about the TGI (NCI-H226 lung) of the same compound?
A: 49.2 µM
